The nature of assay [1]: Binding of BNS to β-cyclodextrin dimers by fluorescence titration. To be noted: water, ca. 25° C. The procedure:
Binding constants for a few of the possible pairs were determined by a fluorescence competition method previously used for cyclodextrin dimers, competing the substrate of interest with 2-(p-tert-butylanilino)naphthalene-6-sulfonic acid 22, (termed BNS, Breslow et al. 1989). [drawing 26]
BNS is fluorescent when bound into a hydrophobic cavity such as that of a cyclodextrin, but only weakly fluorescent in water solution. Only the sulfonated phthalocyanines were soluble enough for this method.
The binding constant of BNS 22 to each dimer was determined as previously (Breslow et al. 1989, Ruebner et al. 1999) by titrating BNS into a dimer solution in a fluorescence cell, then exciting this solution at 330 nm and measuring the fluorescent emission at 438 nm. The binding constant of phthalocyanine to dimer was measured by titration of BNS into a 1:1 mixture of dimer and phthalocyanine. […] The binding constant of BNS to each dimer is given by K=intercept/slope, and the binding constant of the phthalocyanine can be calculated as KI=(K/K′−1)/[I], where K′ is the apparent binding constant of BNS to the dimer in presence of phthalocyanine, and [I] is the concentration of phthalocyanine (Ruebner et al. 1996). […]
The binding constant for BNS to cyclodextrin dimer 21 was determined by the fluorescence emission method. […] The area under the peak between 400 and 500 nm was measured for each addition. […]

Assay [2] is described as follows: Photochemical cleavage of the dimers by bound phthalocyanines, monitored by 1H NMR. In kind it is physicochemical. To be noted: dimer 2.5 mM, photosensitizer 0.14 mM, 5% DMSO-d6 in D2O, O2, light >540 nm, 25° C. The procedure: All of the photocleavage reactions were carried out using the same apparatus, as described previously (U.S. Ser. No. 09/352,529, filed Jul. 13, 1999, now allowed; Ruebner et al. 1999). A halogen lamp (50 W) was set up with a 540 nm cut-off filter and a focusing lens. The NMR tube in which the reactions were run was placed in the most strongly focused area, and oxygen was bubbled continuously through the solution while the photocleavage reactions were run. To monitor the reactions, ^1H NMR's were taken at regular intervals, whereby the disappearance of the alkene peaks and the appearance of the single formyl peak could be observed.
The dimers were at a concentration of 2.5 mM while the photosensitizers were at 0.14 mM in 5% DMSO-d6 in D2O. Here dimer 21 was cleaved using phthalocyanine 11. It can clearly be seen that the amount of alkene (doublet at ˜6.2 ppm) decreases and the formyl peak (singlet at ˜8.4 ppm) appears as the reaction progresses, and that no other peaks are seen in this area. […]
To a solution of β-cyclodextrin dimer 17 (5.9 mg, 2.35×10^−6 mol) and potassium carbonate (2 mg) in D2O (1.00 mL) was added a 3 mM solution of phthalocyanine 6 (0.17 mg, 1.50×10^−7 mol) in DMSO-d6 (50 μL). […] The reaction was monitored by ^1H NMR, by observance of the disappearance of the alkene peaks and the appearance of the formyl peak. […]

Assay [3] in a line: Microcalorimetric titration with p-tert-butylbenzoic acid. In kind it is binding. The procedure: β-cyclodextrin (CD) monomer 23 (6.4 mg, 0.005 mmol) was dissolved in 0.20 M pH 9.0 Na2CO3/NaHCO3 buffer (5.00 mL) to make a 1.0 mM solution. p-tert-Butylbenzoic acid (11.0 mg, 0.062 mmol) was dissolved in 6.16 mL of the same buffer to make a 10.0 mM solution. Both solutions were degassed under reduced pressure with a sonicator for 5 minutes immediately prior to the binding study. The β-CD monomer 23 solution (2.50 mL) was put into the sample cell compartment of an Omega microcalorimeter, whereas the p-tert-butyl-benzoic acid was loaded in a 250 μL syringe and then assembled onto the calorimeter. The system was equilibrated until RMS error was less than 5×10^−3 with the syringe spinning at 400 rpm. The p-tert-butylbenzoic acid solution was then injected into the cell in 25 injections (10 μL, 7 seconds per injection). […] Injection data were automatically collected by the computer, and the data was analyzed by ORIGIN software with the single-binding-site model. […]
β-Cyclodextrin (4.0 mg, 0.0035 mmol) was dissolved in 0.20 M pH 9.0 Na2CO3/NaHCO3 buffer (3.53 mL) to make a 1.0 mM solution. p-tert-butyl-benzoic acid (10.0 mg, 0.056 mmol) was dissolved in 5.60 mL of the same buffer to make a 10.0 mM solution. […] Injection data were automatically collected by the computer, and the data was analyzed by ORIGIN software with the single-binding-site model. […]

Regarding `CNC(=O)CCCS/C=C\SCCCC(=O)NC` [Dimer 18], the “binding constant of BNS to the dimer” value in assay [1] was found to be 418000 M⁻¹. Besides, in assay [2], the “time for 50% cleavage of the dimer by phthalocyanine 6” value stood at 55 min and the “time for 50% cleavage of the dimer by phthalocyanine 14” value was found to be 6 min.
Regarding `OC[C@H]1O[C@@H]2O[C@H]3[C@H](O)[C@@H](O)[C@@H](O[C@H]4[C@H](O)[C@@H](O)[C@@H](O[C@H]5[C@H](O)[C@@H](O)[C@@H](O[C@H]6[C@H](O)[C@@H](O)[C@@H](O[C@H]7[C@H](O)[C@@H](O)[C@@H](O[C@H]8[C@H](O)[C@@H](O)[C@@H](O[C@H]1[C@H](O)[C@H]2O)O[C@@H]8CO)O[C@@H]7CO)O[C@@H]6CO)O[C@@H]5CO)O[C@@H]4CO)O[C@@H]3CO` [β-cyclodextrin], the “binding constant with 4-tert-butylbenzoic acid” value in assay [3] was 1.7×10^4 M^−.

For the origin of these results see patent publication US20030134824A1, “Beta-cyclodextrin dimers and phthalocyanines and uses thereof” (priority 2001, published 2003).
